Experimental data taken from publication PMC9786614, “Nerve Targeting via Myelin Protein Zero and the Impact of Dimerization on Binding Affinity” (Molecules, 2022).
Entries after “also recorded” stand apart in the source; their conditions may differ. Like-named read-outs stand apart in the source and are kept apart here. Starred links: 1 amine or outer side, 2 acyl side, 3 side chain; linkers in the order of their positions; H or OH if unused. Positions of bridges follow the written chain, without caps; N, C: chain ends. Residues, ends and D or L forms follow the SMILES beside them. Chains are numbered I, II in the order given. *: point of attachment. X1 = CC1(C)C(/C=C/C=C/C=C2/N(CCCCCC(=O)NCCN3C(=O)CC([*:1])C3=O)c3ccc(S(=O)(=O)O)cc3C2(C)C)=[N+](CCCCCC(=O)NCCN2C(=O)CC([*:2])C2=O)c2ccc(S(=O)(=O)[O-])cc21; X2 = CC1(C)C(=C/C=C/C=C/C2=[N+](CCCCS(=O)(=O)O)c3ccc(S(=O)(=O)[O-])cc3C2(C)C)N(CCCCCC(=O)NCCN2C(=O)CC(*)C2=O)c2ccc(S(=O)(=O)O)cc21

Tests used:
[1] = free dye; previously reported; ref Spa et al. [27]; cited from earlier work
Excerpt: Table 1 Chemo- and photophysical properties of mono-labeled Cy5-P0_101–125 and bi- labeled Cy5-(P0_101–125)2 and corresponding free cyanine dyes. | column: Sulfonate-(SO3)Cy5(SO3)-COOH *

serum protein = assay: Serum protein binding; format: in vitro ADME; details: serum; protocol modified from Hensbergen et al. [34]; mean ± spread
Procedure: (§1) The molar extinction coefficient (ε), quantum yield (QY), brightness, lipophilicity, serum protein binding, photo- and chemical stability, and stacking behavior were determined according to a slight modification of the protocol put forward by Hensbergen et al.. Sulfonate-(SO3)Cy5(SO3)-COOH [27] was measured and used as a control for QY.

Lipophilicity logP(o/w) = format: physicochemical; details: octanol/water; protocol modified from Hensbergen et al. [34]; mean ± spread
Procedure: as §1

[2] = Stability towards glutathione; format: physicochemical
Procedure: For the stability towards glutathione, which is used as a measure of stability towards thiols and amines in vivo, 125 µL of a 2 mM solution of the compound in (0.1 M HEPES pH 7.4, pre-sparged with N2) was added to 125 µL of a 4 mM solution of reduced glutathione in 0.1M HEPES pH 7.4 (pre-sparged with N2). The solutions were mixed and then placed in a sample manager. A sample was analyzed at 37 degrees over 6 h in total to determine the amount of compound relative to t = 0.

[3] = not given; remark: listed apart in the source
myelin protein zero (P0) = molecular target: T1, myelin protein zero (P0) (Rattus norvegicus, UniProt P06907); assay: Saturation binding by flow cytometry on P0-expressing Schwannoma cells; details: for Nonspecific binding: saturation binding fit, RT4-D12 cells; for Nonspecific binding / Kd: flow cytometry; for Kd: saturation binding, RT4-D12 Schwannoma cells, 0–2000 nM tracer in 0.1% BSA in PBS, 1 h at 4 °C, triplicate, One site—Total fit
T1 construct: RT4-D12 Schwannoma cells were selected for in vitro experiments based on their origin and their specific P0-expressing properties; endogenous in cells; host or cells: RT4-D12 Schwannoma cells
T1 sequence (P06907 30-248): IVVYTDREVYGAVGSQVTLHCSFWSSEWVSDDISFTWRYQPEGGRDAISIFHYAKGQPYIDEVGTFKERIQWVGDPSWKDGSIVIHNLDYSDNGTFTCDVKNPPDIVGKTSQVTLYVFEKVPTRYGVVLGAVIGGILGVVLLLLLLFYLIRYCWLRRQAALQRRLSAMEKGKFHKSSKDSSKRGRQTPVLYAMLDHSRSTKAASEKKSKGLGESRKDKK
Procedure: RT4-D12 Schwannoma cells were selected for in vitro experiments based on their origin and their specific P0-expressing properties.
All chemicals were received from Actu-All Chemical (Oss, The Netherlands), Sigma Aldrich (St. Louis, MO, USA), Tokyo Chemical Industry (Tokyo, Japan), Biosolve BV (Valkenswaard, The Netherlands), VWR Chemicals (Solon, OH, USA) and used without further purification. DMF and DMSO were dried over four Å molecular sieves at least for 24 h prior to use. Preparative high-pressure liquid chromatography (prep-HPLC) was performed on a Waters HPLC system (Waters Chromatography B.V., Etten-Leur, The Netherlands) using a 2545 quaternary gradient module pump and a 2489 UV detector. Dr. Maisch ReproSil-Pur 120 C18-AQ 10 μM (250 mm × 20 mm) column (Dr. Maisch HPLC GmbH, Ammerbuch-Entringen, Germany) was applied operating flow rate of 12 mL/min. HPLC analysis was carried out on Waters Alliance 2690 using a Waters symmetry C18 column (2.1 × 150 mm) with a gradient of 0.1% TFA in H2O/MeCN 95:5 to 0.1% TFA in H2O/MeCN 5:95 in 17 min (0.3 mL/min). Mass spectrometry was performed on a Microflex LT/SH MALDI-TOF mass spectrometer (Bruker, Billerica, MA, USA). Lyophilization was performed with a VaCo 2-II lyophilizer (Zirbus technology GmbH, Bad Grund (Harz), Germany). Absorption spectrometry was performed using a UV1280 UV–vis spectrometer (Shimadzu, Kyoto, Japan), and fluorescence spectrometry was performed using an LS55 (Perkin Elmer, Waltham, MA, USA). The fluorescence spectra at different temperatures were measured on an Agilent Cary Eclipse (Agilent Cary Eclipse, Santa Clara, CA, USA). NMR spectra were measured on a Bruker Avance 300 (Bruker, Billerica, MA, USA) operating at 300 MHz for 1 H and 75.00 MHz for 13 C, using the residual solvents (CDCl3 and DMSO-d6) as internal references, and on a Bruker Advance III spectrometer operating at 600 MHz for 1H and equipped with a 2.5 mm PH SEI probe (Bruker, Billerica, MA, USA). For photostability, a prototype D-Light P surgical laparoscope (KARL STORZ, Tuttlingen, Germany) was used. Fluorescence confocal imaging was performed using a SP8 WLL confocal microscope (Leica Microsystems, Wetzlar, Germany). Obtained images were analyzed using Leica Confocal Software (Leica Microsystems). Mean fluorescence intensity values per sample were measured using a LSRII flow cytometer (BD Biosciences, Franklin Lakes, NJ, USA) with APC-A settings (635 nm laser and 750 nm long-pass filter). The binding constant (KD) of the normalized geometric means were fitted with equations in the Prism 5 software (GraphPad, San Diego, CA, USA). Statistical evaluation (Student’s t-test) for all properties was performed in the Prism 5 software. […]
Flow cytometric analysis was performed using RT4-D12 Schwannoma cells after incubation with either Cy5-P0_101–125 or Cy5-(P0_101–125)2. […] Cells were gated on Forward Scatter and Side Scatter, and a minimum of 10,000 viable cells were analyzed per sample. […]
(§2) For evaluation of the differences in signal intensity per concentration between Cy5-P0_101–125 and Cy5-(P0_101–125)2 (5–1000 nM), the mean signal intensity of Cy5-P0_101–125 at 1000nM was set at 100%, and intensities measured at other tracer concentrations or for Cy5-(P0_101–125)2 were calculated as % increase or decrease from this point. The KD values of the evaluated peptides were calculated using the “Binding-Saturation, One site—Total” nonlinear regression equation, as described previously.

[4] = not given; remark: listed apart in the source
[5] = not given; remark: listed apart in the source
RT4-D12 Schwannoma cells [6] = assay: Flow cytometry quantification of fluorescence signal intensity per tracer concentration; format: cell-based
Procedure: Flow cytometric analysis was performed using RT4-D12 Schwannoma cells after incubation with either Cy5-P0_101–125 or Cy5-(P0_101–125)2. For saturation binding experiments, Cy5-labelled peptides were added to the cell samples in a range of 0–2000 nM in 50 µL of 0.1% bovine serum albumin (BSA) in PBS, as previously described. After 1 h of incubation at 4 °C, the cells were washed two times with 300 µL of 0.1% BSA in PBS and re-suspended in 300 µL of 0.1% BSA. Cells were gated on Forward Scatter and Side Scatter, and a minimum of 10,000 viable cells were analyzed per sample. All experiments were performed in triplicate.
as §2

[7] = Photostability (photobleaching); format: physicochemical; details: illumination in 5 min cycles, 30 min in total, Storz D-Light P system at 50 mm, fluorescence read-out
Procedure: as §1
For photostability measurements, the cuvettes were sealed and illuminated for 5 min (30 min in total) by a modified Storz D-Light P fluorescence imaging system at a distance of 50 mm in a dark environment. After each illumination cycle, the fluorescence intensity was determined.

[8] = not given; remark: listed apart in the source
RT4-D12 Schwannoma cells [9] = assay: Fluorescence confocal microscopy of P0 staining; format: cell-based; details: 1 h at 4 °C
Procedure: RT4-D12 Schwannoma cells were trypsinized and seeded onto 35 mm culture dishes that contained a glass insert (MatTek co, Emu Plains, New South Wales, Australia) two days prior to the imaging experiment. Then, 0.5–1000 nM Cy5-P0_101–125 or Cy5-(P0_101–125)2 was added one hour prior to imaging (incubation at 4 °C; n = 3 per tracer). Peptide solutions were sonicated for 20 s prior to addition to prevent aggregation of the peptide in solution. Lysotracker (lysotracker green; 2 µL/mL DND-26, Thermo Fisher, Waltham, MA, USA) and Hoechst (33,342, 1 mg/mL, 1:500, Thermo Fisher) were added to the to provide staining of lysosomes and the nucleus, respectively.
Images were acquired following Cy5 excitation at 633 nm. Emission was collected between 650–700 nm. For visualization of the lysosomes in the cells, a 488 nm laser was used for excitation, while emission was collected between 500–550 nm. Hoechst was excited at 405 nm, and emission was collected between 410–460 nm. Fluorescence confocal images were acquired using a Leica SP8 WL at sequential settings and 63× magnification. Image analysis was performed using Leica Confocal Software (Leica Microsystems). Semi-quantitative analysis of the Cy5 signal intensity was performed using the quantification tool in Fiji software according to previously described methods.

Serum protein binding = format: in vitro ADME; details: protocol modified from Hensbergen et al. [34]; mean ± spread
Procedure: as §1

[10] = Stacking behavior (absorbance spectra, dilution series); format: physicochemical; details: absorbance spectra in water, dilution series 8 μM to 0.5 μM, normalized
Procedure: as §1
To determine the stacking behavior of the mono- and bi-labeled compounds and their corresponding dyes, a dilution series of Cy5-(P0_101–125)2 and Cy5-P0_101–125 were made, consisting of the dye concentrations ranging from 8 μM to 0.5 μM.
Normalization of the data set for stacking behavior was performed using Equation (1):(1) x(normalized)=(x−xmin)/range of x where range of x= xmax−xmin .

Compound | fraction unbound (serum protein) | λEm in H2O/PBS | λex in H2O/PBS [3] | Nonspecific binding (myelin protein zero (P0)) | Kd (myelin protein zero (P0)) | stokes shift [4] | Brightness in PBS [5] | Photobleaching, % [7] | loss of fluorescence intensity with temperature increase [8] | P0-related staining at 100 nM tracer (RT4-D12 Schwannoma cells [9]) | also measured
Sulfonate-(SO3)Cy5(SO3)-COOH |  |  |  |  |  |  |  |  |  |  | Glutathione stability (at 6 h), % [1]: 95%; Net charge [1]: −2; Photobleaching, % [1]: 93%; Serum protein binding, % [1]: 49 ± 8%; logP(o/w) [1]: −1.42 ± 0.00
I: Ac-KNPPDIVGKTSQVTLYVFEKVPTRYC-NH2 / II: Ac-KNPPDIVGKTSQVTLYVFEKVPTRYC-NH2 (linker I:26-II:26 via X1) [Cy5-(P0_101–125)2] | 0.37 | 671 nm | 654 nm | 0.022 | 70.3 nM | 17 nm | 49.2 M⁻¹ cm⁻¹ | 71% | 65% | cells could be clearly discriminated | logP (Lipophilicity logP(o/w)): -0.57 ± 0.01; remaining at 6 h, 1 mM ([2]; HEPES buffer with reduced glutathione, 2 mM compound mixed 1:1 with 4 mM reduced glutathione, 0.1 M HEPES pH 7.4 (N2 sparged), 37 degrees, amount relative to t = 0): 96%; degradation in glutathione stability test ([2]; reduced glutathione, 0.1 M HEPES pH 7.4, 37 degrees, 6 h): 4%; fold increase in affinity compared to Cy5-P0_101–125 (myelin protein zero (P0); from KD values, p = 0.003): 1.5 fold; fold increase in staining efficiency compared to Cy5-P0_101–125 (RT4-D12 Schwannoma cells [6]; P0 expressing Schwannoma cells, equal staining at 4-fold lower concentration): ~4 fold; higher fluorescence signal intensity compared to Cy5-P0_101–125 at the same concentration, range (RT4-D12 Schwannoma cells [6]; flow cytometry, tracer 5–1000 nM, RT4-D12 cells): 34–59%; higher fluorescence signal intensity compared to Cy5-P0_101–125 at the same concentration, average (RT4-D12 Schwannoma cells [6]; flow cytometry, tracer 5–1000 nM, RT4-D12 cells, p < 0.00001): 44%
COOH-(SO3)Cy5(SO3)-COOH [reference compound] |  |  |  |  |  |  |  | 95% |  |  | Serum protein binding, % (Serum protein binding): 70 ± 4%; logP(o/w) (Lipophilicity logP(o/w)): −1.62 ± 0.01; Glutathione stability (at 6 h), % ([2]; 2 mM compound mixed 1:1 with 4 mM reduced glutathione, 0.1 M HEPES pH 7.4 (N2 sparged), 37 degrees, amount relative to t = 0): 95%
CC[C@H](C)[C@H](NC(=O)[C@H](CC(=O)O)NC(=O)[C@@H]1CCCN1C(=O)[C@@H]1CCCN1C(=O)[C@H](CC(N)=O)NC(=O)[C@H](CCCCN)NC(C)=O)C(=O)N[C@H](C(=O)NCC(=O)N[C@@H](CCCCN)C(=O)N[C@H](C(=O)N[C@@H](CO)C(=O)N[C@@H](CCC(N)=O)C(=O)N[C@H](C(=O)N[C@H](C(=O)N[C@@H](CC(C)C)C(=O)N[C@@H](Cc1ccc(O)cc1)C(=O)N[C@H](C(=O)N[C@@H](Cc1ccccc1)C(=O)N[C@@H](CCC(=O)O)C(=O)N[C@@H](CCCCN)C(=O)N[C@H](C(=O)N1CCC[C@H]1C(=O)N[C@H](C(=O)N[C@@H](CCCNC(=N)N)C(=O)N[C@@H](Cc1ccc(O)cc1)C(=O)N[C@@H](CSC1CC(=O)N(CCNC(=O)CCCCCN2C(=C/C=C/C=C/C3=[N+](CCCCS(=O)(=O)O)c4ccc(S(=O)(=O)[O-])cc4C3(C)C)C(C)(C)c3cc(S(=O)(=O)O)ccc32)C1=O)C(N)=O)[C@@H](C)O)C(C)C)C(C)C)[C@@H](C)O)C(C)C)[C@@H](C)O)C(C)C (stereo partly shown) [Cy5-P0_101–125] (Ac-KNPPDIVGKTSQVTLYVFEKVPTRYC(X2)-NH2) | 0.11 | 671 nm | 650 nm | 0.020 | 105 nM | 21 nm | 55.7 M⁻¹ cm⁻¹ | 94% | 70% | Only a faint P0-related signal | stacking behavior (dye stacking / aggregation) [10]: higher “shoulder peak”; also recorded: typical “stacking shoulder” appears only for a mono-labeled Cy5-P0_101–125 at higher concentration
